According to paper PMC10487843, “Evaluation of Anticancer and Anti-Inflammatory Activities of Some Synthetic Rearranged Abietanes” (International Journal of Molecular Sciences, 2023):
Values after ≈ are worked out from the molar mass of the structure shown. Like-named read-outs stand apart in the source and are kept apart here.

Key:
Type in all cases: cell-based
[1] = test system: human colon adenocarcinoma (HT29); assay: MTT cell viability assay, HT29; settings: for IC80: 80% growth inhibition
Source text: (§1) In this study, we employed the MTT (3-(4,5-dimethyl thiazol-2-yl)-2,5-diphenyltetrazolium bromide) colorimetric assay to evaluate the cytotoxic activity of selected abietanes (compounds 5, 7, 13, 17, and 19) against three tumor cell lines: human colon adenocarcinoma (HT29), human hepatocarcinoma (HepG2), and murine melanoma (B16–F10). The MTT assay relied on the conversion of MTT to formazan by viable cells, with the formazan concentration proportional to the number of viable cells. The concentrations required for 50 and 80% growth inhibition (IC50 and IC80) were determined for each compound.
(§2) The human colorectal adenocarcinoma cell line HT29 (ECACC no. 9172201; ATCC no. HTB-38), the human hepatocarcinoma cell line HepG2 (ECACC no. 85011430), the mouse melanoma cells B16–F10 (ATCC no. CRL-6475), and the murine monocyte/macrophage like RAW 264.7 cell line (ATCC no, TIB-71) were obtained from the cell bank of the University of Granada, Spain. The tumor cell lines were cultured in DMEM (Dulbecco’s modified Eagle’s medium) supplemented with 2 mM glutamine, 10% heat-inactivated FCS (fetal calf serum), and 50 μg/mL of gentamicin (for all cancer cell lines). The RAW 264.7 cell line was cultured in RPMI1640 medium, supplemented with 2 mM glutamine, 10% heat-inactivated FCS, and 50 μg/mL of gentamicin. All cell lines were incubated at 37 °C, in an atmosphere of 5% CO2 and 95% humidity. The culture media were changed every 48 h, and the confluent cultures were separated with a trypsin solution (0.25% EDTA). In all experiments, monolayer cells were grown to 80–90% confluence in sterile cell culture flasks.
(§3) The effects of the compounds on the cell viability were established using the MTT method (Sigma, St. Louis, MO, USA). The cytotoxicity of the compounds was assessed by measuring the absorbance of MTT dye staining of metabolically competent cells. The cells were cultivated in 96-well plates at 6.0 × 10^3 cells/mL for the HT29 and RAW 264.7 cell lines, at 5.0 × 10^3 cells/mL for B16–F10 cells, and 15.0 × 10^3 cells/mL for the HepG2 cell line, with a final volume of 200 μL per well being incubated with the different products (0–100 μg/mL). After 72 h, 100 μL of MTT solution (0.5 mg/mL) in 50% of PBS and 50% of the medium was added to each well. Following incubation for 1.5 h, formazan was resuspended in 100 μL of DMSO, and each concentration was tested in triplicate. The cell viability relative to the untreated control cells was determined by measuring the absorbance at 570 nm using an ELISA plate reader (Tecan Sunrise MR20–301, TECAN, Grödig, Austria).

[2] = test system: human hepatocarcinoma (HepG2); assay: MTT cell viability assay, HepG2; settings: for IC80: 80% growth inhibition
Source text: as §1, §2, §3

[3] = test system: HT29, HepG2 and B16–F10 cell lines; assay: MTT cell viability assay, span over all three tumor cell lines; settings: 72 h
Source text: as §1
The human colorectal adenocarcinoma cell line HT29 (ECACC no. 9172201; ATCC no. HTB-38), the human hepatocarcinoma cell line HepG2 (ECACC no. 85011430), the mouse melanoma cells B16–F10 (ATCC no. CRL-6475), and the murine monocyte/macrophage like RAW 264.7 cell line (ATCC no, TIB-71) were obtained from the cell bank of the University of Granada, Spain. […]
The effects of the compounds on the cell viability were established using the MTT method (Sigma, St. Louis, MO, USA). The cytotoxicity of the compounds was assessed by measuring the absorbance of MTT dye staining of metabolically competent cells. […] The cell viability relative to the untreated control cells was determined by measuring the absorbance at 570 nm using an ELISA plate reader (Tecan Sunrise MR20–301, TECAN, Grödig, Austria).

[4] = Homo sapiens, HT-29, 72 h, read-out: IC50
[5] = Homo sapiens, HepG2, 72 h, read-out: IC50

With `CC(C)C1=CC2=C(C(=O)C1=O)[C@@]1(C)CCCC(C)(C)[C@@H]1CC2` [Compound 13] the IC50 ([1]; 72 h, listed as Precursor (13)) was 2.67 ± 0.82 µg/mL (≈ 8.89 µM), the IC80 ([1]; Homo sapiens, HT-29, 72 h) was 5.19 ± 0.68 µg/mL (≈ 17.3 µM) and the IC50 [1, 4] was 2.7 ± 0.8 µg/mL (≈ 8.99 µM). For the same molecule, the IC80 ([2]; Homo sapiens, 72 h) was 7.67 ± 0.8 µg/mL (≈ 25.5 µM), the IC50 [2, 5] was 5.58 ± 0.93 µg/mL (≈ 18.6 µM) and the IC50 ([3]; read-out: IC50 values, range in all three cell lines) was 2.67 to 5.58 µg/mL (≈ 8.89 to 18.6 µM). The IC80 ([3]; read-out: IC80 values, range in all three cell lines) was 5.19 to 7.67 µg/mL (≈ 17.3 to 25.5 µM).

`CC(C)C1=CC2=C(C(=O)C1=O)C1=CC(=O)CC(C)(C)[C@@]1(C)C=C2` [Compound 5, Pygmaeocin B] was tested, and the IC80 ([1]; Homo sapiens, HT-29, 72 h) was 9.73 ± 1.18 µg/mL (≈ 31.3 µM), the IC50 [1, 4] was 6.69 ± 1.18 µg/mL (≈ 21.6 µM) and the IC50 ([2]; 72 h, listed as Pygmaeocin B (5)) was 8.99 ± 1.12 µg/mL (≈ 29 µM). For the same molecule, the IC80 ([2]; Homo sapiens, 72 h) was 11.4 ± 1.08 µg/mL (≈ 36.8 µM) and the IC50 [2, 5] was 8.98 µg/mL (≈ 28.9 µM).
